{"source": "paper PMC3527734", "about": "“Peripheral injections of melanin-concentrating hormone receptor 1 antagonist S38151 decrease food intake and body weight in rodent obesity models” (Frontiers in Endocrinology, 2012)", "key": {"[1]": {"system": "Wistar rats", "experiment": "NEI-MCH-induced food intake after acute i.c.v. injection", "assay_type": "in vivo, rat", "description": "Wistar and Zucker fa/fa rats were anesthetized with Forène (Abbott Laboratories, Queenborough, UK), and a stainless steel guide cannula (Plastic Products Co, Roanoke, Va, USA) was stereotaxically implanted into the right lateral ventricle at the following coordinates relative to the bregma: AP −0.8 mm, L = −1.2 mm, and V = −3.5 mm. After a 7-day recovery period, during which the animals were handled each day to minimize non-specific stress, they were lightly anesthetized with Forène. Human/mouse/rat MCH (1 μg in a volume of 2.5 μ L, Bachem, Voisins-le-Bretonneux, France) or an equivalent volume of artificial cerebrospinal fluid (CSF) was then injected through the intraventricular cannula. Immediately after injection, the animals quickly recovered and were returned to their home cages. Only those animals responding within 2 h with a robust increase in food intake, indicating correct cannula placement, were used in the experiments described below. Two days after MCH injection, the rats were randomly assigned to different groups and studied in one of the following protocols.\nWistar rats were habituated for at least 2 weeks before experiment to a diet of food pellets (6 mm diameter) of the following composition: 67.5% food flour, 26.5% sucrose, 5% gum tragacanth, and 1.25% magnesium stearate (A03 UAR, Orge, France). The food pellets were present in a metal food hopper attached to the inside of each cage. At 09:00 on the day of study, the animals were lightly anesthetized with Forene® (Abbott, France). Thereafter, rats were injected intra-cerebroventricular (i.c.v.) with vehicle (artificial CSF) or with S38151 [0.5, 5, 10, 20, 30, or 50 nmol/kg ([…], 14, 28, 42, or 70 μg/kg, respectively)] in a volume of 2.5 μL, 20 min prior to the injection of human/rat NEI-MCH [5 nmol/kg (18.7 μg/kg) in a volume of 2.5 μL].\nFood intake was measured at different times after peptide injection. Food spillage was carefully quantified during each time period, and intake measurements were corrected for this loss. At the end of the experiments, the animals were euthanized and the positions of the cannulae were assessed by the injection of 100 μ L Evans blue dye (2 mg/mL) followed by the visual examination of brain slices. Only data obtained from animals with correctly positioned cannulae were included in the final data analysis.\nFigure 3 The effect of S38151 on NEI-MCH-induced food intake in Wistar rats after acute central administration. Satiated rats were injected (i.c.v.) at the beginning of the light phase with 5 μg NEI-MCH, 5 μg NEI-MCH + differing doses of S38151 (0.5–50 nmol/kg), or an equivalent volume of artificial cereblospinal fluid vehicle (5 μL). Cumulative food intake was measured at 1, 2, 4, 6, and 24 h post-injection."}, "[2]": {"system": "Zucker fa/fa rats", "experiment": "acute i.p. administration, food intake in fasted rats", "assay_type": "in vivo, rat", "settings": "S38151 30 mg/kg i.p.", "description": "Zucker fa/fa rats were habituated in the same conditions as Wistar rats (described in section “Acute Central Peptide Administration and Feeding Studies in Wistar Rats”). At 09:00 on the day of study, after fasting for 24 h, either vehicle (normal saline) or S38151 [30 mg/kg (20 μmol/kg)] was administered intraperitoneally (i.p.).\nFigure 6 The effect of S38151 on food intake in Zucker fa/fa rats after acute peripheral administration. Rats were fasted for 24 h, and then injected (i.p.) at the beginning of the light phase with vehicle (normal saline) or 30 mg/kg S38151. Cumulative food intake was measured 1, 2, 4, 6, and 24 h after injection. Results are expressed as mean ± SEM (n = 16 rats per group)."}}, "note": "Where a SMILES comes first, the peptide text is derived from it."}
{"smiles": "CSCC[C@@H]1NC(=O)[C@@H](NC(=O)c2ccc(NC(=N)N)cc2)CSSC[C@@H](C(=O)N[C@@H](Cc2c[nH]c3ccccc23)C(=O)O)NC(=O)[C@@H]2CCCN2C(=O)[C@H](CCCNC(=N)N)NC(=O)[C@H](Cc2ccc(O)cc2)NC(=O)[C@H](C(C)C)NC(=O)[C@H](CCCNC(=N)N)NC(=O)[C@H](CC(C)C)NC1=O", "note": "[S38151, p-guanidinobenzoyl-(Des-Gly10)-MCH (7–17)] (HELM PEPTIDE1{[N=C(N)Nc1ccc(C(=O)[*:2])cc1].C.M.L.R.V.Y.R.P.C.W}$PEPTIDE1,PEPTIDE1,2:R3-10:R3$$$V2.0; C-terminus assumed)", "values": [{"measurement": "food intake during the entire 24-h period versus control group", "setting": "[1]; NEI-MCH alone or any combination of NEI-MCH and S38151, i.c.v.", "result": "not significantly altered"}, {"measurement": "inhibition of NEI-MCH-induced food intake", "setting": "[1]; S38151 50 nmol/kg i.c.v.", "result": "Nearly complete inhibition"}, {"measurement": "inhibition of the increase in food intake produced by NEI-MCH", "setting": "[1]; S38151 0.5-50 nmol/kg i.c.v. 20 min before NEI-MCH, first and second hours", "result": "statistically significant dose-related inhibition"}, {"measurement": "food intake, first hour", "setting": "[2]; 24-h fasted Zucker fa/fa rats, control 3.6 ± 0.4 g, mean ± SEM, n = 16", "result": "0.09 ± 0.06", "unit": "g"}, {"measurement": "inhibition of food consumption within 1 h", "setting": "[2]; Zucker fa/fa rats", "result": "complete inhibition"}, {"measurement": "decrease in food intake up to 24 h after drug administration", "setting": "[2]; cumulative food intake versus control", "result": "maintained statistical significance"}]}
